Test results from ChEMBL document CHEMBL4196009, “Novel vitexin-inspired scaffold against leukemia” (Eur J Med Chem, 2018).

What was measured:
UoC-B1 = experiment: Antiproliferative activity against human UOCB1 cells after 72 hrs by CelTiter-Glo assay; format: functional, cell-based; conditions: UoC-B1, 72 h
SUP-B15 = experiment: Antiproliferative activity against human SUP-B15 cells after 72 hrs by CelTiter-Glo assay; format: functional, cell-based; conditions: SUP-B15, 72 h
HepG2 = experiment: Antiproliferative activity against human HepG2 cells after 72 hrs by CelTiter-Glo assay; format: functional, cell-based; conditions: HepG2, 72 h
SEM cells = experiment: Antiproliferative activity against human SEM cells after 72 hrs by CelTiter-Glo assay; format: functional, cell-based
BJ = experiment: Antiproliferative activity against human BJ cells after 72 hrs by CelTiter-Glo assay; format: cell-based
KOPN-8 = experiment: Antiproliferative activity against human KOPN8 cells after 72 hrs by CelTiter-Glo assay; format: functional, cell-based; conditions: KOPN-8, 72 h
THLE-2 = experiment: Antiproliferative activity against human THLE2 cells after 72 hrs by CelTiter-Glo assay; format: cell-based; conditions: THLE-2, 72 h

| Compound | EC50 (UoC-B1) [µM] | EC50 (SUP-B15) [µM] | EC50 (HepG2) [µM] | EC50 (SEM cells) [µM] | EC50 (BJ) [µM] | EC50 (KOPN-8) [µM] | EC50 (THLE-2) [µM] |
| --- | --- | --- | --- | --- | --- | --- | --- |
| COC(=O)c1cc(=O)c2cc(NC(=O)NC34CC5CC(CC(C5)C3)C4)ccc2[nH]1 | > 16.2 | 9.1 | > 16.2 | > 16.2 | > 32.2 | > 16.2 |  |
| COC(=O)c1cc(=O)c2cc(NC(=O)Nc3ccc4c(c3)CCC4)ccc2[nH]1 | > 24.1 | > 24.1 | > 24.1 | > 24.1 | > 24.1 | > 24.1 |  |
| CCOC(=O)[C@H](Cc1ccccc1)NC(=O)Nc1ccc2[nH]c(C(=O)OC)cc(=O)c2c1 | > 13.9 | 16.5 | > 13.9 | > 13.9 | > 27.6 | > 13.9 |  |
| COc1cc(OC)c2c(=O)cc(C(=O)Nc3ccc(-n4cccc4)cc3)[nH]c2c1 | 51.8 | > 77 | > 77 | > 77 | > 77 | > 77 |  |
| COC(=O)c1cc(=O)c2c(OC)cc(OC)cc2n1S(=O)(=O)c1ccc(C)cc1 |  | 9.7 | > 20 | 5.8 | 139 | 6 | 149 |
| COc1cc(OC)c2c(=O)cc(C(=O)Nc3ccc4oc(-c5ccc(F)cc5)nc4c3)[nH]c2c1 | > 36.8 | > 36.8 | > 36.8 | > 36.8 | > 36.8 | > 36.8 |  |
| COC(=O)c1cc(=O)c2cc(NC(=O)Nc3ccc(F)c(Cl)c3)ccc2[nH]1 | > 6.35 | > 12.6 | > 6.35 | > 6.35 | > 12.6 | > 6.35 |  |
| COC(=O)c1cc(=O)c2cc(NC(=O)Nc3ccc4c(c3)CCN4C)ccc2[nH]1 | > 86.2 | > 86.2 | > 86.2 | > 86.2 | > 86.2 | > 86.2 |  |
| COC(=O)c1cc(=O)c2cc(N)ccc2[nH]1 | > 33.8 | > 67.2 | > 33.8 | > 33.8 | > 67.2 | > 33.8 |  |
| COC(=O)c1cc(=O)c2cc(NC(=O)Nc3cc(OC)c(OC)c(OC)c3)ccc2[nH]1 | > 43.3 | > 86.2 | > 43.3 | > 43.3 | > 86.2 | > 43.3 |  |
| COC(=O)c1cc(=O)c2cc(NC(=O)NC3c4ccccc4-c4ccccc43)ccc2[nH]1 | > 12.1 | > 24.1 | > 12.1 | > 12.1 | > 24.1 | > 12.1 |  |
| COC(=O)c1cc(=O)c2cc(NC(=O)Nc3ccc(C(F)(F)F)cc3[N+](=O)[O-])ccc2[nH]1 | > 26 | > 51.7 | > 26 | 22.5 | > 51.7 | > 26 |  |
| COc1cc(OC)c2c(=O)cc(C(=O)Nc3cccc(-c4nccs4)c3)[nH]c2c1 | > 54 | > 54 | > 54 | > 54 | > 54 | > 54 |  |
| COc1cc(OC)c2c(=O)cc(C(=O)Nc3cc(C(F)(F)F)ccc3Oc3ccccc3OC)[nH]c2c1 |  | > 53.4 | 10.7 | 10.8 | > 53.4 | > 53.4 |  |
| COc1ccc(Oc2ccc(C(F)(F)F)cc2NC(=O)c2cc(=O)c3c(OC)cc(OC)cc3[nH]2)cc1 | > 67.2 | > 67.2 | 5.3 | > 67.2 | > 67.2 | > 67.2 |  |
| COc1cc(OC)c2c(=O)cc(C(=O)Nc3ccc(Oc4cccnc4)cc3)[nH]c2c1 | 27.7 | > 32.2 | > 32.2 | > 32.2 | > 32.2 | > 32.2 |  |
| COc1cc(OC)c2c(=O)cc(C(=O)Nc3ccc(N4CCN(C)CC4)cc3)[nH]c2c1 | > 19.8 | > 19.8 | > 19.8 | > 19.8 | > 19.8 | > 19.8 |  |
| COC(=O)c1cc(=O)c2cc(NC(=O)N[C@@H](C)c3cccc(OC)c3)ccc2[nH]1 | > 25.3 | > 25.3 | > 25.3 | > 25.3 | > 25.3 | > 25.3 |  |
| COC(=O)c1cc(=O)c2cc(NC(=O)Nc3cc(F)cc(C(F)(F)F)c3)ccc2[nH]1 | > 20.2 | > 40.2 | > 20.2 | > 20.2 | > 40.2 | > 20.2 |  |
| C=CCNC(=O)Nc1ccc2c(c1)c(=O)cc(C(=O)OC)n2C(=O)NCC=C | > 43.3 | 86.2 | > 43.3 | > 43.3 | 86.2 | > 43.3 |  |
| COc1ccc(-c2cc(=O)c3c(OC)cc(OC)cc3[nH]2)cc1 | > 31.2 | > 62.1 | > 31.2 | > 31.2 | > 62.1 | > 31.2 |  |
| COC(=O)c1cc(=O)c2cc(NC(=O)NCCc3cccs3)ccc2[nH]1 | > 9.81 | > 19.5 | > 9.81 | > 9.81 | > 19.5 | > 9.81 |  |

| Compound | EC50 (UoC-B1) [µM] | EC50 (SUP-B15) [µM] | EC50 (HepG2) [µM] | EC50 (SEM cells) [µM] | EC50 (BJ) [µM] | EC50 (KOPN-8) [µM] | EC50 (THLE-2) [µM] |
| --- | --- | --- | --- | --- | --- | --- | --- |
| COc1cc(OC)c2c(=O)cc(-c3ccc4c(c3)OCO4)[nH]c2c1 | > 27.7 | 18.8 | > 27.7 | > 27.7 | > 55.2 | > 27.7 |  |
| Nc1ccc2nc(C(=O)O)cc(O)c2c1 |  | 46 |  | 29 | 371 |  |  |
| COc1ccc(-c2cc(=O)c3c(OC)cc(OC)cc3n2C)cc1 |  | 28 |  | 26 | 68 | 30 |  |
| O=c1c(-c2ccc(O)cc2)coc2cc(O)cc(O)c12 [GENISTEIN] | 35.7 | > 86.2 | 67.7 | 59.3 | > 86.2 | > 86.2 |  |
| COc1cc(OC)c2c(=O)cc(C(=O)Nc3cccc(-n4ccnc4)c3)[nH]c2c1 | > 16.4 | > 16.4 | > 16.4 | > 16.4 | > 16.4 | > 16.4 |  |
| C=CCNC(=O)n1c(-c2ccc(OC)cc2)cc(=O)c2c(OC)cc(OC)cc21 |  | 16 | > 20 | 12 | 74 | 12 |  |
| COC(=O)c1cc(=O)c2cc([N+](=O)[O-])ccc2[nH]1 | > 41.6 | 76.5 | > 41.6 | > 41.6 | > 82.8 | > 41.6 |  |
| COc1cc(OC)c2c(=O)cc(C(=O)Nc3ccc(Oc4ccc(F)cc4)cc3)[nH]c2c1 | > 50 | > 50 | > 50 | > 50 | > 50 | > 50 |  |
| COc1cc(OC)c2c(=O)cc(C(=O)Nc3cccc(N4CCCC4)c3)[nH]c2c1 | > 58.6 | > 58.6 | > 58.6 | > 58.6 | > 58.6 | > 58.6 |  |
| COc1ccc(-c2cc(=O)c3c(OC)cc(OC)cc3n2S(=O)(=O)c2c(F)c(F)c(F)c(F)c2F)cc1 |  | 4.1 | > 34.5 | 3.9 | > 34.5 | > 34.5 |  |
| COC(=O)c1cc(=O)c2cc(NC(=O)Nc3cccc(C(C)=O)c3)ccc2[nH]1 | > 8.08 | 11.4 | > 8.08 | > 8.08 | > 16.1 | > 8.08 |  |
| COC(=O)c1cc(=O)c2cc(NC(=O)Nc3ccc(Cl)c(Cl)c3)ccc2[nH]1 | > 6.35 | 5.52 | > 6.35 | > 6.35 | > 12.6 | > 6.35 |  |
| COc1cc(OC)c2c(=O)cc(C(=O)Nc3ccc(Oc4ccc([N+](=O)[O-])cc4)cc3)[nH]c2c1 |  | 4.3 | > 23 | 0.48 | > 23 | 20.5 | 90 |
| C=C(C)c1cccc(C(C)(C)NC(=O)Nc2ccc3[nH]c(C(=O)OC)cc(=O)c3c2)c1 | > 11.5 | > 23 | > 11.5 | > 11.5 | > 23 | > 11.5 |  |
| COc1ccc(-c2cc(=O)c3c(OC)cc(OC)cc3n2Cc2ccccc2)cc1 | > 17.3 | > 34.5 | > 17.3 | > 17.3 | > 34.5 | > 17.3 |  |
| COC(=O)c1cc(=O)c2cc(NC(=O)NCc3ccccc3)ccc2[nH]1 | > 19.5 | > 19.5 | > 19.5 | > 19.5 | > 19.5 | > 19.5 |  |
| COC(=O)c1cc(=O)c2c(OC)cc(OC)cc2[nH]1 | > 34.5 | 16.1 | > 34.5 | > 34.5 | > 34.5 | > 34.5 |  |
| COC(=O)c1cc(=O)c2cc(NC(=O)Nc3ccc(C(F)(F)F)cc3)ccc2[nH]1 | > 6.35 | 3.27 | > 6.35 | > 6.35 | > 12.6 | > 6.35 |  |
| COc1ccc(-c2cc(=O)c3c(OC)cc(OC)cc3n2S(=O)(=O)c2ccc(C#N)cc2)cc1 |  | 7.9 | > 17.2 | 1.3 | > 17.2 | > 17.2 |  |
| COC(=O)c1cc(=O)c2c(OC)cc(OC)cc2n1C | 0.773 | > 37.9 | > 19 | > 19 | > 37.9 | > 19 |  |
| COC(=O)c1cc(=O)c2cc(NC(=O)Nc3ccc4c(c3)OCCO4)ccc2[nH]1 | > 13.3 | > 26.4 | > 13.3 | > 13.3 | > 26.4 | > 13.3 |  |
| COc1cc(OC)c2c(=O)cc(C(=O)Nc3ccc(C4CCCCC4)cc3)[nH]c2c1 |  | > 43.1 | > 43.1 |  | 36.2 | 18.4 |  |
